{
  "source": "patent US9353087B2",
  "about": "“Inhibitors of Bruton's tyrosine kinase” (Biogen Idec MA Inc., priority 2012, dated 2016)",
  "key": {"[1]": {"test_system": "PLCγ2 phosphorylation in Ramos cells", "assay": "BCR pathway activation: inhibition of phosphorylation of PLCγ2 in Ramos cells (electrochemiluminescence immunoassay)", "type": "cell-based", "conditions": "Homo sapiens, 2 hours compound, 10 μg/mL anti-IgM for 5 minutes, R^2=0.90", "experimental": "Protocol: One day before treatment, Ramos cells were plated at a density of 3×10^5 cells per well in 200 μl, of complete medium in a 96-well tissue culture filter plates (Millipore, Billerica, Mass.). On the day of treatment, used medium was removed by filtration and the cells re-suspended in 200 μL serum free medium containing serial compound dilutions and DMSO to 0.1%, then incubated for 2 hours at 37° C. Cells were stimulated for 5 minutes with 10 μg/mL goat anti-human IgM at 37° C. […] After washing with TBST, MSD read buffer was added and the luminescence was measured in an MSD SECTOR Imager 6000. Maximum response was determined as the average luminescence in wells containing stimulated cells treated with anti-IgM and DMSO. Minimal response was determined as the average luminescence in wells containing unstimulated cells treated with DMSO alone. The maximal and minimal values were used to normalize luminescence in compound treatment wells. The normalized values were plotted against compound concentration on a log scale then analyzed using Prizm software (GraphPad Software, Inc.). […]"}, "[2]": {"test_system": "TNFα expression by FcγR-activated primary human macrophages", "assay": "FcγR activation of primary human macrophages: TNFα expression", "type": "cell-based", "conditions": "Macrophage, human monocyte derived macrophages, plate-bound IgG", "text": "(§1) FcγR activation of primary human macrophages. Autoantibody and immune-complex mediated activation through FcγR can be modeled by activation of macrophages with immobilized IgG. Primary human macrophages derived from GM-CSF treated monocytes up-regulate activation markers such as CD80, CD86, MHC antigens and the FcγRIII receptor. Human monocyte derived macrophages can be activated by plate-bound purified human IgG. This stimulation crosslinks the FcγRIII receptor and induces the secretion of pro-inflammatory cytokines such as TNFα, IL-6, IL 1β and MCP-1.\n(§2) Generally, macrophages were cultured in plates previously incubated with purified IgG then washed. […] Cell culture supernatants were analyzed by ELISA for the expression of TNFα and IL-6.\n(§3) Protocol: Human monocytes were isolated from buffy coats of healthy donors and negatively selected by magnetic cell sorting (Monocyte Isolation Kit II, Miltenyi Biotec). Purified monocytes were cultured in standard media supplemented with low-IgG FBS and 100 ng/mL GM-CSF for 5-7 days to induce macrophage differentiation. […] Supernatants were collected after 4 hrs and 18 hrs and analyzed for TNFα and IL-6, respectively."}, "[3]": {"test_system": "IL-6 expression by FcγR-activated primary human macrophages", "assay": "FcγR activation of primary human macrophages: IL-6 expression", "type": "cell-based", "conditions": "Macrophage, human monocyte derived macrophages, plate-bound IgG", "text": "as §1, §2, §3"}, "Human CD19+ B cells": {"test_system": "Human CD19+ B cells", "assay": "Inhibition of BCR (anti-IgM)-induced human B cell proliferation", "type": "cell-based", "conditions": "human CD19+ B cells from different donors, 10 μg/ml anti-IgM, 72 hours, CellTiter-Glo, read-out: IC50, anti-IgM-induced B cell cellular metabolism (proliferation)", "experimental": "In this context, cellular metabolism directly correlates with cellular activation and proliferation, and can also reflect relative cell survival during proliferation. […] The results are shown graphically in FIG. 6.\nProtocol: Human B cells were isolated from peripheral blood mononuclear cells or unpurified buffy coats using Ficoll-Hypaque gradients (Amersham) and negatively selected by magnetic cell sorting (Human B Cell Isolation Kit II, Miltenyi Biotec). Target cell purity was determined by flow cytometry by staining for markers of B cells, T cells and monocytes (CD19, CD3, CD14, respectively; BD Biosciences). Data was collected on a FACsCaliber flow cytometer and analyzed using FloJo software (BD Biosciences). […] Negatively selected human B cells were stimulated with 10 μg/mL anti-IgM F(ab′)2 (Jackson ImmunoResearch) in 96 well plates. […] B cells were stimulated for 72 hr at 37° C., 5% CO2. Proliferation was measured using the CellTiter-Glo reagent (Promega), as measured on a luminometer. Mean values were plotted against maximum proliferation and IC50 values were determine using GraphPad Prism v5 software."}, "[4]": {"biological_target": "T1, hERG (human ether-à-go-go-related gene) potassium channel (Homo sapiens, UniProt Q12809)", "T1 construct": "host or cells: HEK293", "T1 sequence (Q12809 whole entry)": "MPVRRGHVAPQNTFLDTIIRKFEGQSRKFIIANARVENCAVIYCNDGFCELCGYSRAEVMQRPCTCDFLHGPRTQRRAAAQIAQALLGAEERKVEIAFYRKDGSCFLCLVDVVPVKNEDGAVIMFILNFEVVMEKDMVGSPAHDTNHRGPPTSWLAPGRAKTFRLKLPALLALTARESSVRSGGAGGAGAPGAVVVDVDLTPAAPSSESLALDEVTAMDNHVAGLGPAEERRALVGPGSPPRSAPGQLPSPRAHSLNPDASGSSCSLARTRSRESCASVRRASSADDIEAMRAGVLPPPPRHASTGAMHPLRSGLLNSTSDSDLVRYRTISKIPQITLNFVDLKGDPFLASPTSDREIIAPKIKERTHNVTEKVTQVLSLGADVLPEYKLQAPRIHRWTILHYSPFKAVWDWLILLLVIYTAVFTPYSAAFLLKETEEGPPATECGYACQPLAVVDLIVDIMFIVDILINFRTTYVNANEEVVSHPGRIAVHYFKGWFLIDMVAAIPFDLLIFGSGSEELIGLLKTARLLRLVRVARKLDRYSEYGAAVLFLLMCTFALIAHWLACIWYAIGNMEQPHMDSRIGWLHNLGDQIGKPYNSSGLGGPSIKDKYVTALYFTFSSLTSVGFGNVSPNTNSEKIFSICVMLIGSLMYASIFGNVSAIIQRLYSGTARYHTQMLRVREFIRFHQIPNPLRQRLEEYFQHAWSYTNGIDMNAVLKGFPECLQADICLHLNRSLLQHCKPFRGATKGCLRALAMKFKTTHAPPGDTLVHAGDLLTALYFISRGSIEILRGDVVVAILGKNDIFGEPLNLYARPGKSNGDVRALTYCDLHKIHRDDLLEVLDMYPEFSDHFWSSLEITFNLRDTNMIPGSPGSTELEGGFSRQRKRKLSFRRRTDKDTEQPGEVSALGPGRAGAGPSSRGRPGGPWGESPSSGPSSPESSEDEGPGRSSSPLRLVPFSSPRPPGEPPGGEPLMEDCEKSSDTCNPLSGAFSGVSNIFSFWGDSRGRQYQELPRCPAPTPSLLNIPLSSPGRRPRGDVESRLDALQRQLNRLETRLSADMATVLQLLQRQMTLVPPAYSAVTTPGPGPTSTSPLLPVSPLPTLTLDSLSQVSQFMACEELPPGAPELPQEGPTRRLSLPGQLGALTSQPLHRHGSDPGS", "assay": "FastPatch/QPatch hERG inhibition assay in HEK293 cells", "type": "cell-based", "conditions": "HEK293 cells stably transfected with hERG cDNA, QPatch HT, IC50 estimated from hERG inhibition data", "text": "The in vitro effects of provided compounds was investigated on the hERG (human ether-à-go-go-related gene) potassium channel current (a surrogate for IKr, the rapidly activating, delayed rectifier cardiac potassium current) expressed in human embryonic kidney (HEK293) cells stably transfected with hERG cDNA. Cells were placed in HEPES-buffered physiological saline solution in a glass-lined 96-well plate and loaded with appropriate amounts of test and control solutions for a duration of a 3-minute exposure at each concentration. Test compound was diluted in 0.3% DMSO. An automated parallel patch clamp system, QPatch HT (Sophion Bioscience A/S, Denmark), was used to evaluate at various concentrations (e.g., 10 μM). The IC50 values were estimated based on the hERG inhibition data. The study was performed at ChanTest (14656 Neo Parkway, Cleveland, Ohio). The QPatch screen is further described by Janzen and Bernasconi (eds.), High Throughput Screening, Methods and Protocols, Second Edition, vol. 565, chapter 10, pg. 209-223, 2009."}, "BTK": {"biological_target": "T2, BTK (Homo sapiens, UniProt Q06187)", "T2 construct": "purchased Upstate 14-552", "T2 sequence (Q06187 whole entry)": "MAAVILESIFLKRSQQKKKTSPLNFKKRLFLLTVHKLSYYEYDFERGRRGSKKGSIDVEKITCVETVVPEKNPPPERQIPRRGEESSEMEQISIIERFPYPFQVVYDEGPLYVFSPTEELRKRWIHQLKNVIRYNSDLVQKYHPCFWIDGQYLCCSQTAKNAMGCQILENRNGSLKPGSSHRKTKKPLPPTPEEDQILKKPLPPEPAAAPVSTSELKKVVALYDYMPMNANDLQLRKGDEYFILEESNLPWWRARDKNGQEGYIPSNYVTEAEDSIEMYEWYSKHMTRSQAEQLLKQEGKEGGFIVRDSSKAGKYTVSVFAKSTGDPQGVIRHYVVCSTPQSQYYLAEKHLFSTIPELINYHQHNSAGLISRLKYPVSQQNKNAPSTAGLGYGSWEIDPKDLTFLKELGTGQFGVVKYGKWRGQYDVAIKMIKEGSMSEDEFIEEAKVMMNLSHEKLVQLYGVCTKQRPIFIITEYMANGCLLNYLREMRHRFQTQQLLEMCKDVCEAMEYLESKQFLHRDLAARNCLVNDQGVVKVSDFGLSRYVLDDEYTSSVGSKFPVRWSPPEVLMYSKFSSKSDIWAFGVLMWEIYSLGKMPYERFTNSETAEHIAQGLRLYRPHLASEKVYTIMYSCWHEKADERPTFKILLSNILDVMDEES", "assay": "In vitro BTK kinase assay: BTK-POLYGAT-LS assay", "type": "biochemical", "conditions": "ATP 10 uM, polyGAT 100 nM, BTK 0.25 nM, 30 minutes", "experimental": "In vitro BTK kinase assay: BTK-POLYGAT-LS ASSAY. The purpose of the BTK in vitro assay was to determine compound potency against BTK through the measurement of IC50. Compound inhibition was measured after monitoring the amount of phosphorylation of a fluorescein-labeled polyGAT peptide (Invitrogen PV3611) in the presence of active BTK enzyme (Upstate 14-552), ATP, and inhibitor. The BTK kinase reaction was done in a black 96 well plate (costar 3694). For a typical assay, a 24 uL aliquot of an ATP/peptide master mix (final concentration; ATP 10 uM, polyGAT 100 nM) in kinase buffer (10 mM Tris-HCl pH 7.5, 10 mM MgCl2, 200 uM […], 5 mM DTT, 0.01% Triton X-100, and 0.2 mg/ml casein) was added to each well. Next, 1 uL of a 4-fold, 40× compound titration in 100% DMSO solvent was added, followed by adding 15 uL of BTK enzyme mix in 1× kinase buffer (with a final concentration of 0.25 nM). The assay was incubated for 30 minutes before being stopped with 28 uL of a 50 mM EDTA solution. Aliquots (5 uL) of the kinase reaction were transferred to a low volume white 384 well plate (Corning 3674), and 5 uL of a 2× detection buffer (Invitrogen PV3574, with 4 nM Tb—PY20 antibody, Invitrogen PV3552) was added. […] Time resolved fluorescence (TRF) on Molecular Devices M5 (332 nm excitation; 488 nm emission; 518 nm fluorescein emission) was measured."}, "[5]": {"test_system": "collagen induced arthritis (CIA) in female Lewis rats", "assay": "Rat collagen-induced arthritis model", "type": "in vivo", "conditions": "oral gavage BID, therapeutic administration, read-out: Ankle histiopathology ED50", "text": "The collagen induced arthritis (CIA) model in female Lewis rats requires primary T and B cell immune responses to type II collagen (CII) immunization for the development of a severe inflammatory disease (see Goldschmidt T J, Holmdahl R. Cell Immunol. 154(1):240-8, 1994; Helfgott, S. M., et al; Clin. Immunol. Immunopathol. 31:403, 1984; Holmdahl R. et al., J Autoimmun. 7(6):739-52, 1994; and Stuart, J. M., et al., J. Exp. Med. 155:1, 1982). Clinical disease onsets after a secondary CII challenge and the disease progresses over the following eight days.\nGenerally, female Lewis rats were immunized with bovine collagen type II in incomplete Freund's adjuvant. […] Clinical severity of arthritis was assessed by caliper measurements of ankles taken every day beginning on […].\nDetailed protocol: Female Lewis rats were immunized subcutaneously with bovine collagen type II (1:1 emulsion of 2 mg/ml bovine CII in 0.01 N acetic acid: Incomplete Freund's Adjuvant) at three sites of back skin. […] Clinical severity of CIA was assessed by caliper measurements of ankles taken every day beginning on Day 9. […] Baseline ankle caliper measurements for established disease animals was assessed on day 1 of therapeutic dosing and animals were randomly assigned to treatment groups after confirmation of clinically disease onset (0.2751-0.2755 in). […]"}},
  "note": "Where two headings read alike, the source gives them in different places.",
  "data": [
    {"smiles": "Nc1ncnc(N2CC[C@H](O)[C@@H](N3CCC[C@@H](Nc4cc(Cl)cc(C(F)(F)F)c4)C3=O)C2)c1F", "note": "[Compound I]", "values": [
      {"measurement": "EC50", "setting": "[1]", "value": 150, "unit": "nM"},
      {"measurement": "IC50", "setting": "[2]; ELISA (FIG. 7A), read-out: IC50 for inhibition of TNFα", "value": 1080, "unit": "nM"},
      {"measurement": "IC50", "setting": "[2]; supernatants after 4 hrs, ELISA, read-out: IC50, inhibition of TNFα expression", "value": 1100, "unit": "nM"},
      {"measurement": "IC50", "setting": "[3]; ELISA (FIG. 7B), read-out: IC50 for inhibition of IL-6", "value": 350, "unit": "nM"},
      {"measurement": "IC50", "setting": "[3]; supernatants after 18 hrs, ELISA, read-out: IC50, inhibition of IL-6 expression", "value": 350, "unit": "nM"},
      {"measurement": "IC50", "setting": "Human CD19+ B cells", "value": 260, "unit": "nM"},
      {"measurement": "IC50", "setting": "[4]", "value": 9400, "unit": "nM"},
      {"measurement": "IC50", "setting": "BTK", "value": 1.97, "unit": "nM"},
      {"measurement": "ED50", "setting": "[5]", "value": 4.08, "unit": "mg/kg"}
    ]}
  ]
}
